Assays:
Type in all cases: biochemical
Human PKK = molecular target: T1, Human PKK (Homo sapiens, UniProt P03952); test: Inhibition of PKK using an endpoint assay (human PKK); details: fluorogenic substrate H-Pro-Phe-Arg-AMC, 1 h room temperature, method names human or rat PKK, table does not say which
T1 construct: purchased Enzyme Research Laboratories
In short: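 Endpoint fluorescence (ex 355 nm, em 460 nm) after stopping with 1 μM final PPACK II. Buffer: Tris 100 mM pH 7.8, NaCl 150 mM, BSA 0.1%, Tween20 0.05%, with 1% DMSO present; enzyme is human plasma kallikrein.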

[1] = molecular target: T2, PKK in kaolin activated human platelet poor plasma (Homo sapiens, UniProt P03952); test: Inhibition of PKK in kaolin activated human PPP; details: 25-750 μg/mL kaolin, global fit, text b200 calls the values IC90;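 also: readout is the rate of fluorogenic substrate cleavage in rfu per min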
T2 construct: Platelet poor plasma (PPP) obtained from human wholeblood; from tissue
T2 sequence (P03952 391-638 limits assumed): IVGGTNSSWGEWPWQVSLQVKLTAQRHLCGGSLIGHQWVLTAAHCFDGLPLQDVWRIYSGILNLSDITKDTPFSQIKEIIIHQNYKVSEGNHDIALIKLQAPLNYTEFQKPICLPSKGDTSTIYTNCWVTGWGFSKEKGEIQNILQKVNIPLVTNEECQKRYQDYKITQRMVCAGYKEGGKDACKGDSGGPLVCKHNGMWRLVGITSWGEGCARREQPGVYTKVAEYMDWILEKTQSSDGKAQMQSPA
T2 sequence (P03952 20-390 limits assumed): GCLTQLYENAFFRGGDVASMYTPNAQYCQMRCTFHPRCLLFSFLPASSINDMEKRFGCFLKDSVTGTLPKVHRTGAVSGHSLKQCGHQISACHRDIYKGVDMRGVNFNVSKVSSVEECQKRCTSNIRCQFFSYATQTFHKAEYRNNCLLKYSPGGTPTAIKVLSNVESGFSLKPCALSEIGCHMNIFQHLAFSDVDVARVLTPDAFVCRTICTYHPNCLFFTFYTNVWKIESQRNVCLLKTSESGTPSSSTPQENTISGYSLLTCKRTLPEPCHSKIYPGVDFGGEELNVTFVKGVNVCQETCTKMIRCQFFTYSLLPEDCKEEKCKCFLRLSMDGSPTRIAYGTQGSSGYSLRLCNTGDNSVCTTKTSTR
Protocol: Platelet poor plasma (PPP) obtained from human wholeblood, anticoagulated with Na-Citrate, is incubated with various concentrations of the test compound together with either 25, 75, 250, or 750 μg/mL kaolin in assay buffer for 20 min at 37° C. such that for each kaolin dose used a concentration response is obtained for the test compound.

human TK1 = molecular target: T3, human TK1 (Homo sapiens, UniProt P06870); test: Inhibition of TK1 (Ki); details: activated human TK1, substrate H-Pro-Phe-Arg-AMC, 24° C.
T3 construct: purchased R&D Systems
T3 sequence (P06870 25-262): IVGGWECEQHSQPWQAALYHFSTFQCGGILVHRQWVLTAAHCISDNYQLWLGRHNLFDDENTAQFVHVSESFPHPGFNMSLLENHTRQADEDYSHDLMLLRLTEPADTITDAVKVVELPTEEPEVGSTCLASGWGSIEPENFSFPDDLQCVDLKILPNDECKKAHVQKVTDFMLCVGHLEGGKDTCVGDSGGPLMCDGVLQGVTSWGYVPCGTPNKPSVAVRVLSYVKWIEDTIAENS
Protocol: The ability of compounds of formula (I) to inhibit plasma kallikrein (PKK), Factor XIIa (FXIIa), Factor XIa (FXIa), Factor Xa (FXa), Factor IIa (alpha-thrombin; FIIa), plasmin, trypsin, tissue kallikrein 1 (TK1), Factor VIIa (FVIIa), or FVIIa complexed with Tissue Factor, phospholipids and CaCl2 (FVIIa/TF/PL/CaCl2) is determined using the following biochemical assays in assay buffer (100 mM Tris, 150 mM NaCL, adjusted to a pH of 7.8 with HCl, and containing 0.1% (w/v) BSA and 0.05% (v/v) Tween20) in the presence of 1% (v/v) DMSO:
Prior to the assay, human TK1 (R&D Systems) is activated by incubation with human trypsin (Calbiochem) in a 1:10,000 ratio for 15 min at 37° C. For assaying TK1 inhibitory activity, activated TK1 (31.25 nM or 1 U/mL) is incubated at 24° C. with 0.1 mM fluorogenic substrate H-Pro-Phe-Arg-AMC (11295 from Bachem) and various concentrations of the test compound in assay buffer. Measurements are performed in a kinetic interval every 2nd minute for 16 min using a Spectramax M5 (Molecular Devices) with the following settings of the wavelength excitation of 350 nm and wavelength emission of 450 nm.
The pIC50 values are then fitted using a four-parametric fitting procedure using GraphPad Prism (version 6; GraphPad Software, Inc.). Respective Ki values are obtained by correction of the IC50 values for the respective KM value of the used substrate (see Table A for the obtained KM values of the used substrates) using the following formula:
[formula] Where the IC50 is in molar and the KM value in mM.

T1 sequence (P03952 20-390 limits assumed): as the sequence (P03952 20-390 limits assumed) above
T1 sequence (P03952 391-638 limits assumed): as the sequence (P03952 391-638 limits assumed) above

Row | SMILES | IC50 (Human PKK) | IC50 [1] | Ki (human TK1)
1 | Cn1cnc2c1CC[C@H]2NC(=O)c1cn(Cc2ccc(N3CC4CC4C3)nc2)nn1 (stereo partly drawn) [Example 135, 1-[(6-{3-Azabicyclo[3.1.0]hexan-3-yl}pyridin-3-yl)methyl]-N-[(4R)-1-methyl-1H,4H,5H,6H-cyclopenta[d]imidazol-4-yl]-1H-1,2,3-triazole-4-carboxamide] | 4.2 nM | 909 nM | > 10000 nM
2 | Cc1nc(N2CC3C(C2)C3(F)F)ccc1Cn1cc(C(=O)N[C@@H]2CCc3c2ncn3C)nn1 (stereo partly drawn) [Example 27, 1-[(6-{6,6-Difluoro-3-azabicyclo[3.1.0]hexan-3-yl}-2-methylpyridin-3-yl)methyl]-N-[(4R)-1-methyl-1H,4H,5H,6H-cyclopenta[d]imidazol-4-yl]-1H-1,2,3-triazole-4-carboxamide] | 0.9 nM | 202 nM | > 10000 nM
3 | Cc1nc(N2CC3CC3C2)ccc1Cn1cc(C(=O)N[C@@H]2CCc3c2ncn3C)c2cncnc21 (stereo partly drawn) [Example 173, 7-[(6-{3-Azabicyclo[3.1.0]hexan-3-yl]-2-methylpyridin-3-yl)methyl]-N-[(4R)-1-methyl-1H,4H,5H,6H-cyclopenta[d]imidazol-4-yl]-7H-pyrrolo[2,3-d]pyrimidine-5-carboxamide] | 0.6 nM | 729 nM | > 10000 nM
4 | Cn1cnc2c1CC[C@H]2NC(=O)c1cn(Cc2ccc(N3CC4(CC4)C3)nc2C(F)F)cn1 [Example 47, 1-[(6-{5-Azaspiro[2.3]hexan-5-yl}-2-(difluoromethyl)-pyridin-3-yl)methyl]-N-[(4R)-1-methyl-1H,4H,5H,6H-cyclopenta[d]imidazol-4-yl]-1H-imidazole-4-carboxamide] | 0.8 nM | 173 nM | > 10000 nM
5 | Cc1nc(N2CC3CC3C2)c(C#N)cc1Cn1cnc(C(=O)N[C@@H]2CCc3c2ncn3C)c1 (stereo partly drawn) [Example 124, 1-[(6-{3-Azabicyclo[3.1.0]hexan-3-yl}-5-cyano-2-methylpyridin-3-yl)methyl]-N-[(4R)-1-methyl-1H,4H,5H,6H-cyclopenta[d]imidazol-4-yl]-1H-imidazole-4-carboxamide] | 2.4 nM | 823 nM | > 10000 nM
6 | Cn1cnc2c1CC[C@H]2NC(=O)c1cnn(Cc2ccc(N3CC4CC4C3)nc2CO)c1 (stereo partly drawn) [Example 86, 1-[(6-{3-Azabicyclo[3.1.0]hexan-3-yl}-2-(hydroxymethyl)-pyridin-3-yl)methyl]-N-[(4R)-1-methyl-1H,4H,5H,6H-cyclopenta[d]imidazol-4-yl]-1H-pyrazole-4-carboxamide] | 1.2 nM | 597 nM | > 10000 nM
7 | Cn1cnc2c1CC[C@H]2NC(=O)c1cn(Cc2cnc(N3CC4CC4C3)cc2C(F)(F)F)cn1 (stereo partly drawn) [Example 121, 1-[(6-{3-Azabicyclo[3.1.0]hexan-3-yl}-4-(trifluoromethyl)pyridin-3-yl)methyl]-N-[(4R)-1-methyl-1H,4H,5H,6H-cyclopenta[d]imidazol-4-yl]-1H-imidazole-4-carboxamide] | 1.6 nM | 514 nM | > 10000 nM
8 | CCc1nc(N2CC3(CC3)C2)ccc1Cn1cc(C(=O)N[C@@H]2CCc3c2ncn3C)cn1 [Example 51, 1-[(6-{5-Azaspiro[2.3]hexan-5-yl}-2-ethylpyridin-3-yl)methyl]-N-[(4R)-1-methyl-1H,4H,5H,6H-cyclopenta[d]imidazol-4-yl]-1H-pyrazole-4-carboxamide] | 1 nM | 213 nM | > 10000 nM
9 | Cn1cnc2c1CC[C@H]2NC(=O)c1cnn(Cc2ccc(N3CC4CC4C3)c(C#N)c2F)c1 (stereo partly drawn) [Example 198, 1-[(4-{3-azabicyclo[3.1.0]hexan-3-yl}-3-cyano-2-fluorophenyl)methyl]-N-[(4R)-1-methyl-1H,4H,5H,6H-cyclopenta[d]imidazol-4-yl]-1H-pyrazole-4-carboxamide] | 0.8 nM | 398 nM | > 10000 nM
10 | CCCc1nc(N2CC3CC3C2)ccc1Cn1cnc(C(=O)N[C@@H]2CCc3c2ncn3C)c1 (stereo partly drawn) [Example 110, 1-[(6-{3-Azabicyclo[3.1.0]hexan-3-yl}-2-propylpyridin-3-yl)methyl]-N-[(4R)-1-methyl-1H,4H,5H,6H-cyclopenta[d]imidazol-4-yl]-1H-imidazole-4-carboxamide] | 0.9 nM | 784 nM | > 10000 nM
11 | Cc1nc(N2CC3CC3C2)c(C#N)cc1Cn1cc(C(=O)N[C@@H]2CCc3c2ncn3C)cn1 (stereo partly drawn) [Example 128, 1-[(6-{3-Azabicyclo[3.1.0]hexan-3-yl}-5-cyano-2-methylpyridin-3-yl)methyl]-N-[(4R)-1-methyl-1H,4H,5H,6H-cyclopenta[d]imidazol-4-yl]-1H-pyrazole-4-carboxamide] | 5.1 nM | 1390 nM | > 10000 nM

Next, values leading:

Row | IC50 (Human PKK) | IC50 [1] | Ki (human TK1) | SMILES
12 | 1.6 nM | 560 nM | > 10000 nM | Cc1nc(N2CC3CC3C2)ccc1Cn1cc(C(=O)N[C@@H]2CCc3c2ncn3C)cn1 (stereo partly drawn) [Example 133, 1-[(6-{3-Azabicyclo[3.1.0]hexan-3-yl}-2-methylpyridin-3-yl)methyl]-N-[(4R)-1-methyl-1H,4H,5H,6H-cyclopenta[d]imidazol-4-yl]-1H-pyrazole-4-carboxamide]
13 | 1.5 nM | 492 nM | > 10000 nM | Cn1cnc2c1CC[C@H]2NC(=O)c1cn(Cc2ccc(N3CC4CC4C3)nc2Cl)cn1 (stereo partly drawn) [Example 122, 1-[(6-{3-Azabicyclo[3.1.0]hexan-3-yl}-2-chloropyridin-3-yl)methyl]-N-[(4R)-1-methyl-1H,4H,5H,6H-cyclopenta[d]imidazol-4-yl]-1H-imidazole-4-carboxamide]
14 | 0.3 nM | 157 nM | > 10000 nM | Cc1c(Cn2cnc(C(=O)N[C@@H]3CCc4c3ncn4C)c2)cnc(N2CC3CC3C2)c1C#N (stereo partly drawn) [Example 118, 1-[(6-{3-Azabicyclo[3.1.0]hexan-3-yl}-5-cyano-4-methylpyridin-3-yl)methyl]-N-[(4R)-1-methyl-1H,4H,5H,6H-cyclopenta[d]imidazol-4-yl]-1H-imidazole-4-carboxamide]
15 | 2.4 nM | 934 nM | > 10000 nM | Cn1cnc2c1CC[C@H]2NC(=O)c1cn(Cc2cnc(N3CC4CC4C3)cc2Cl)cn1 (stereo partly drawn) [Example 120, 1-[(6-{3-Azabicyclo[3.1.0]hexan-3-yl}-4-chloropyridin-3-yl)methyl]-N-[(4R)-1-methyl-1H,4H,5H,6H-cyclopenta[d]imidazol-4-yl]-1H-imidazole-4-carboxamide]
16 | 1.1 nM | 155 nM | > 10000 nM | Cn1cnc2c1CC[C@H]2NC(=O)c1cnn(Cc2ccc(N3CC4(CC4)C3)nc2C(F)F)c1 [Example 52, 1-[(6-{5-Azaspiro[2.3]hexan-5-yl}-2-(difluoromethyl)-pyridin-3-yl)methyl]-N-[(4R)-1-methyl-1H,4H,5H,6H-cyclopenta[d]imidazol-4-yl]-1H-pyrazole-4-carboxamide]
17 | 0.9 nM | 184 nM | > 10000 nM | Cn1cnc2c1CC[C@H]2NC(=O)c1cn(Cc2ccc(N3CC4(CC4)C3)nc2C(F)F)nn1 [Example 4, 1-[(6-{5-Azaspiro[2.3]hexan-5-yl}-2-(difluoromethyl)-pyridin-3-yl)methyl]-N-[(4R)-1-methyl-1H,4H,5H,6H-cyclo-penta[d]imidazol-4-yl]-1H-1,2,3-triazole-4-carboxamide]
18 | 5.5 nM | 1180 nM | > 10000 nM | Cc1nc(N2CC3CC3C2)ncc1Cn1cc(C(=O)N[C@@H]2CCc3c2ncn3C)cn1 (stereo partly drawn) [Example 177, 1-[(2-{3-Azabicyclo[3.1.0]hexan-3-yl}-4-methylpyrimidin-5-yl)methyl]-N-[(4R)-1-methyl-1H,4H,5H,6H-cyclopenta[d]imidazol-4-yl]-1H-pyrazole-4-carboxamide]
19 | 1.1 nM | 233 nM | > 10000 nM | Cc1nc(N2CC3CC3C2)ccc1Cn1cnc(C(=O)N[C@@H]2CCc3c2ncn3C)c1 (stereo partly drawn) [Example 23, 1-[(6-{3-Azabicyclo[3.1.0]hexan-3-yl}-2-methylpyridin-3-yl)methyl]-N-[(4R)-1-methyl-1H,4H,5H,6H-cyclopenta[d]imidazol-4-yl]-1H-imidazole-4-carboxamide]
